Source: patent US20230026696A1, “TRPV4 RECEPTOR LIGANDS” (UNIVERSITY OF UTAH RESEARCH FOUNDATION, priority 2019, published 2023)

Legend:
[1] = target: T1, human TRPV4 (Homo sapiens, UniProt Q9HBA0); assay: Fluorometric cell-based Ca2+ flux assay, HEK-293 cells stably overexpressing human TRPV4; details: for IC50: HEK-293 stably overexpressing human TRPV4, agonist GSK1016790A 30 nM
T1 construct: expressed in transfected cells
Method in brief: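 HEK-293 cells stably overexpressing human TRPV4, Fluo 4-loaded, pre-incubated 30 min at 37° C with compound, then stimulated with 30 nM GSK1016790A (final). Max ΔF/s over 1 min, media-corrected, expressed relative to no-antagonist control; IC50 from ≥8 concentrations, ≥3 replicates.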

[2] = test system: intraocular pressure (IOP); assay: In vivo tonometric IOP assay in microbead mouse model of ocular hypertension; details: for IOP after single topical application: 1 μM and 10 μM, comparable to 0.5% timolol; for IOP after topical administration / protection of RGCs: mouse model of ocular hypertension, compounds 1 μM and 10 μM, timolol 0.5%; for IOP after topical administration: FIG. 1; for protection of RGCs: topical
[3] = test system: intraocular pressure (IOP); assay: In vivo IOP assay in dog model of ocular hypertension (ADAMTS10 Beagles)
Method: Homozygous Beagels with autosomal recessive missense mutation in the ADAMTS10 gene develop significant IOP elevations due to decreased outflow facility for aqueous humor, resulting in open angle glaucoma that manifests as optic nerve head cupping and optic neuropathy.
8 drops of Compound 52 (200 mM in hydroxypropyl methylcellulose solution, stock dissolved in DMSO) were administered to the Beagels at 7 AM for 1.5 hours. Control eyes received the vehicle (hydroxypropyl methylcellulose eyedrop with proper dilution of DMSO). IOP was measured by tonometry at 9:00 AM (6 readings per event, averaged) in dogs under topical anesthesia (N=5 OAG, N=5 non-symptomatic dogs). General ophthalmic examinations were performed by slit lamp biomicroscopy (Kowa SL-17 Portable Slit Lamp; Kowa Company, Ltd.) and indirect ophthalmoscopy (Keeler All Pupil II headset; Keeler Instruments; Pan Retinal 2.2D condensing lens; Volk Optical) to detect potential treatment-related adverse effects.

T1 sequence (Q9HBA0 whole entry): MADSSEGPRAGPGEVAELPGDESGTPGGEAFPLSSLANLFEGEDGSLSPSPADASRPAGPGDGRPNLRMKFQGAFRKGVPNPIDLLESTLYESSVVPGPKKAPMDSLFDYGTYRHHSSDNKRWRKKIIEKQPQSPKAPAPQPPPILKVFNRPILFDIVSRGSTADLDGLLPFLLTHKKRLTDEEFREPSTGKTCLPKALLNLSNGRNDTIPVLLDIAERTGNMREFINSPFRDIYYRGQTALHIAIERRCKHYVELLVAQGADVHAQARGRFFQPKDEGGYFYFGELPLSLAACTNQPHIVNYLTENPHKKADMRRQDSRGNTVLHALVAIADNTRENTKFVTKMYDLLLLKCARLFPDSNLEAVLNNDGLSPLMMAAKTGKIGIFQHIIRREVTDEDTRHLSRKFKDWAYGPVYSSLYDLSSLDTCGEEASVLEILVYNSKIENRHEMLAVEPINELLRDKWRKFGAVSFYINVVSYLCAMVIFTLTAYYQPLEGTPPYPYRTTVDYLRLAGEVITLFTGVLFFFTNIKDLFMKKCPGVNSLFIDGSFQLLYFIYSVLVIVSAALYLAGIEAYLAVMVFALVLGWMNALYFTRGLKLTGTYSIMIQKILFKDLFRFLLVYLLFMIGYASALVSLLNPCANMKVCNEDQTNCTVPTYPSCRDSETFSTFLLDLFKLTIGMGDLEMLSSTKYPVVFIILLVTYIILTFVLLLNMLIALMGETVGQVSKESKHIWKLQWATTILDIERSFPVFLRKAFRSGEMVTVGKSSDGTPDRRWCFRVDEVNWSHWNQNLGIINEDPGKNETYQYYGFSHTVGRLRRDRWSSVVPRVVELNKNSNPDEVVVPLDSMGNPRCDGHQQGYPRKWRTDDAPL

Structure (SMILES) | IC50 [1] [nM] | selectivity for TRPV4 versus TRPA1, TRPM8, TRPV3 and TRPV1 ([1]; comparison of IC50 values) | IOP after single topical application [2] | IOP after topical administration [2] | protection of RGCs [2] | average IOP after topical application ([3]; ocular hypertensive dogs, mean baseline IOP 45.5 mm Hg, 8 drops, 200 mM in hydroxypropyl methylcellulose) [mm Hg] | tolerability in dogs ([3]; topical, N=10) | signs of ocular discomfort or conjunctival hyperemia ([3]; topical, N=10, slit lamp and ophthalmoscopy)
N#Cc1ccc(OCC2(CO)CN(S(=O)(=O)c3ccc(Cl)cc3Cl)C2)cc1F [Compound 11, 4-((1-((2,4-Dichlorophenyl)sulfonyl)-3-(hydroxymethyl)azetidin-3-yl)methoxy)-2-fluorobenzonitrile] | 52 to 61 | substantially more selective for TRPV4 | effectively lower IOP | lowered the IOP | protected RGCs | – | – | –
Cl.N#Cc1ccc(OCC2(N)CN(S(=O)(=O)c3ccc(Cl)cc3Cl)C2)cc1F [Compound 52, 4-((3-Amino-1-((2,4-dichlorophenyl)sulfonyl)azetidin-3-yl)methoxy)-2-fluorobenzonitrile hydrochloride salt] | 24 to 66 | – | effectively lower IOP | lowered the IOP | protected RGCs | 36.6 | well-tolerated | no observable signs of ocular discomfort or conjunctival hyperemia
